# Results taken from PMC9415161, “PEG-Bottlebrush Stabilizer-Based Worm-like Nanocrystal Micelles with Long-Circulating and Controlled Release for Delivery of a BCR-ABL Inhibitor against Chronic Myeloid Leukemia (CML)” (Pharmaceutics, 2022).
# Read-outs that look alike come from different tables or passages of the source.
# Assays:
# [1] = set-up: method as in PMID 26789553; conditions: 50 mg/kg, P.O.; cited from earlier work
# [2] = test system: K562 cells; assay: In vitro cell toxicity assay (CCK8); assay type: cell-based; conditions: Homo sapiens, K562, 72 h
# Protocol: The K562 cell line used in this work was ordered from the American Type Culture Collection (ATCC, Manassas, VA, USA). The K562 cells were cultured in RPMI 1640 with 10% fetal bovine serum (FBS) (VivaCell, Shanghai, China) and 1% penicillin/streptomycin in a humidified incubator at 37 °C with 5% CO2. Firstly, K562 cells were seeded into 96-well plates with 100 μL of 1640 medium containing 3000 cells per well, and were incubated at 37 °C under 5% CO2. Subsequently, the cells in each well were treated with a series of concentrations of free 053 in DMSO, 053-F127 NCs, and 053-PPP NC micelles, respectively. Cell viability was determined using the Cell Counting Kit-8 (CCK8) (Best Bio, Shanghai, China) based on the manufacturer’s instructions. Subsequently, 10 μL of CCK8 solution was added to each well, and the absorbance of each well at a wavelength of 450 nm was measured using a microplate reader (iMARK, Bio-Rad, Hercules, CA, USA) after further incubation for 1 h at 37 °C. The absorbance was normalized and plotted as a function of drug concentration. The GI50 values were calculated using GraphPad Prism 8.0 (San Diego, CA, USA).
# [3] = test system: K562 cells; set-up: method as in PMID 26789553; conditions: against K562 cells; cited from earlier work
# [4] = test system: K562 xenograft; assay: In vivo anticancer efficacy in K562 xenograft mouse model; set-up: species or system Bal B/c nude mice; conditions: 40 mg/kg QD, PO, n = 5
# Protocol: Female Bal B/c nude mice were used to establish K562 xenograft mouse models according to the protocol described above. When the tumors reached 150–200 mm^3, the mice were randomly divided into seven groups (n = 5) for the evaluation of antitumor efficacy in vivo at 40 mg/kg: Vehicle, free 053 QD (Once a day, PO), 053-F127 NC QD (IV), 053-F127 NC Q2D (Once every other day, IV), 053-PPP NC QD (IV), 053-PPP NC Q2D (IV), and 053-PPP NC Q4D (once every 4 days, IV). During the treatment, body weight and tumor growth were measured daily. Tumor volumes (V) were calculated as follows (Equation (3)):V (mm^3) = [(W^2 × L)/2],(3) where width (W) and length (L) are defined as the lower and higher of two measurements, respectively. When the tumors of the vehicle group reached the limit of the animal ethical regulations, the test was stopped. All the mice were euthanized, and major tissues/organs were harvested for immunohistochemical (IHC) analysis, including HE, Ki-67, and TUNEL staining.
# [5] = set-up: method as in PMID 26789553; conditions: cited from earlier work
# [6] = In vivo pharmacokinetics after tail vein injection; conditions: male, Sprague-Dawley, rat, plasma, rats, IV 1 mg/kg, n = 3
# Protocol: The in vivo profiling of free 053, 053-F127 NCs, and 053-PPP NC micelles were evaluated and compared using PK tests in male Sprague Dawley rats with individual weights of ~200 g (from the Laboratory Animal Center of Anhui Medical University, Hefei, China), approved by the Animal Ethics Committee of Hefei Institutes of Physical Science, Chinese Academy of Sciences, Hefei, China (approval code: DW-2019-20). The rats were housed in an air-conditioned room at 23 ± 2 °C and humidity of ~50%. After acclimatizing the facilities for 1 week, the rats were randomly divided into three groups (three per group): free 053, 053-F127 NC, and 053-PPP NC micelle. The rats were fasted for 12 h prior to drug administration. Free 053 (dissolved in 10% v/v DMSO in glucose 5%), 053-F127 NC, and 053-PPP NC micelle suspensions were administrated by tail vein injection at a dose of 1 mg/kg. Blood samples were collected in heparinized tubes at 2, 5, 15, 30 min and 1, 2, 4, 6, 9, 12, and 24 h (for all three groups). For the 053-PPP NC micelle group, blood was sampled at another three time points of 72, 96, and 120 h. The collected fresh blood samples were immediately processed in accordance with the following protocol: (1) collection of 100 μL of plasma by centrifuging the blood samples for 3 min at 6000 rpm and 4 °C, followed by storage at –80 °C for further analysis; (2) 20 μL of 200 ng/mL of caffeine (as an internal standard solution) was added to 100 μL of each plasma sample; (3) 400 μL of methanol was applied, vortexed for 5 min, and centrifuged at 14,000 rpm for 10 min; (4) the collected supernatants were quantified via LC-MS/MS analysis by loading 5 μL of supernatant. The collected data were analyzed by the non-compartment model using WinNonlin 8.1 software (Pharsight Corporation, Mountain View, CA, USA) to elucidate the PK parameters.
structure (smiles),measurement,setting,value
"CNc1ncncc1C(=O)Nc1cc(NC(=O)c2cccc(C(F)(F)F)c2)ccc1C [Free 053, N-(2-methyl-5-(3-(trifluoromethyl)benzamido)phenyl)-4-(methylamino)pyrimidine-5-carboxamide]",TGI,[1],48.3%
same,GI50,[2],5.95 ± 1.95 nM
same,GI50,[3],~14 nM
same,tumor inhibition efficacy compared with the vehicle group,[4],did not show a significant difference
same,oral bioavailability,[5],~ 24%
same,AUC(0-inf),[6],509 ± 132 ng·h/mL
same,AUC(0-t),[6],499 ± 132 ng·h/mL
same,C0,[6],555 ± 142 ng/mL
same,Cmax,[6],364 ± 42 ng/mL
same,Tmax,[6],1.8 min
same,clearance,[6],34.3 mL/min/kg
same,half-life,[6],2.02 ± 0.42 h
same,MRT last,[6]; read-out: MRT0–t,2.54 ± 0.55 h
same,MRT inf,[6]; read-out: MRT0–∞,2.78 ± 0.57 h
same,Vd,[6]; read-out: Vz,5.87 ± 1.33 L/kg
